The values below come from patent US9266876B2 (Actelion Pharmaceuticals Ltd., priority 2012, dated 2016).

Chain of human CXCR3A (P49682 whole entry): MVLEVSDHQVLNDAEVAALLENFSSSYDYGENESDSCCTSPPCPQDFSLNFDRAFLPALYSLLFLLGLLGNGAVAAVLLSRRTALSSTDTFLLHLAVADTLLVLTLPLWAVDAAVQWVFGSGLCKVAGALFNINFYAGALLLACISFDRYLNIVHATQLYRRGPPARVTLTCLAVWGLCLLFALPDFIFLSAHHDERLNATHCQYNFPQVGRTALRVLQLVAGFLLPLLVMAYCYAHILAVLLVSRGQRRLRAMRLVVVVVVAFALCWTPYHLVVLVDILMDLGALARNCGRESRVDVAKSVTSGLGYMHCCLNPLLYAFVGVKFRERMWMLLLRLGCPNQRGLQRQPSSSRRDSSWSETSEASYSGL

This assay concerns the target human CXCR3A (Homo sapiens (Human), UniProt P49682). Kind of assay: FLIPR assay. To be noted: CHO-K1 cells expressing the human CXCR3A coupled to Galpha(16); CXCL10 agonist 20 nM; Fluo-4-AM fluorescence; mean values if determined several times. The format is cell-based. How it is done: The bioactivity of compounds is tested in a fluorometric imaging plate reader (FLIPR: Molecular Devices) using engineered CHO-K1 cells expressing the human CXCR3A coupled to a G protein (Galpha(16)). Cells are plated the day prior to bioassay in F12 medium supplemented with 10% FBS and G418 and hygromycin antibiotics to maintain recombinant selection. At the day of bioassay, cells are washed and dye loaded for one hour with Fluo-4-AM (Invitrogen) in Hanks Balanced Salt Solution (Invitrogen), buffered with 20 mM Hepes at pH 7.4 and sodium bicarbonate (0.015%), containing 5 mM probenecid. […] Cells are washed free of excess dye and 60 microliter of wash buffer is added. Stock solutions of test compounds are made up at a concentration of 10 mM in DMSO, and serially diluted in dilution buffer to concentrations required for inhibition dose response curves. After a 10 minute incubation period at 37° C., 10 microliters of each compound dilution are transferred from a compound plate to the plate containing the recombinant cells in the FLIPR instrument according to the manufacturer's instructions. Following basal readings, 10 microliter CXCL10 agonist at a concentration of 20 nM (from Peprotech) is added, again using the FLIPR instrument. Changes in fluorescence are monitored before and after addition of the test compounds. Emission peak values above base level after CXCL10 addition are exported after base line subtraction. The program XLfit is used to fit the data to a single site dose response curve and to calculate IC50 values.
`COc1ccc2[nH]cc(CC(=O)N3CCN(c4scnc4-c4nc5ccccc5[nH]4)C[C@H]3C)c2c1` [Example 126, 1-{(R)-4-[4-(1H-Benzoimidazol-2-yl)-thiazol-5-yl]-2-methyl-piperazin-1-yl}-2-(5-methoxy-1H-indol-3-yl)-ethanone] yielded an IC50 of 68 nM. This counts as double-digit nanomolar.
The compound `C[C@@H]1CN(c2scnc2-c2nc3c(F)cccc3[nH]2)CCN1C(=O)Cn1cnc2cccnc21` [Example 97, 1-{(R)-4-[4-(4-Fluoro-1H-benzoimidazol-2-yl)-thiazol-5-yl]-2-methyl-piperazin-1-yl}-2-imidazo[4,5-b]pyridin-3-yl-ethanone] returned an IC50 of 2 nM.
`C[C@@H]1CN(c2scnc2-c2nc3c(F)c(F)ccc3[nH]2)CCN1C(=O)Cn1cnc2cccnc21` [Example 90, 1-{(R)-4-[4-(4,5-Difluoro-1H-benzoimidazol-2-yl)-thiazol-5-yl]-2-methyl-piperazin-1-yl}-2-imidazo[4,5-b]pyridin-3-yl-ethanone]: the IC50 stood at 2 nM. That is a single-digit nanomolar value.
Next, `Cn1c(=O)n(CC(=O)N2CCN(c3scnc3-c3nc4c(O)cccc4[nH]3)CC2)c2ccccc21` [Example 112, 1-(2-{4-[4-(4-Hydroxy-1H-benzoimidazol-2-yl)-thiazol-5-yl]-piperazin-1-yl}-2-oxo-ethyl)-3-methyl-1,3-dihydro-benzoimidazol-2-one]: 10 nM; `O=C(Cn1ccc2ccc(C(F)(F)F)cc21)N1CCN(c2scnc2-c2nc3ccccc3[nH]2)CC1` [Example 54, 1-{4-[4-(1H-Benzoimidazol-2-yl)-thiazol-5-yl]-piperazin-1-yl}-2-(6-trifluoromethyl-indol-1-yl)-ethanone]: 112 nM.
In turn, `COc1cc2c(ccn2CC(=O)N2CCN(c3scnc3-c3nc4ccccc4[nH]3)CC2)cc1Cl` [Example 62, 1-{4-[4-(1H-Benzoimidazol-2-yl)-thiazol-5-yl]-piperazin-1-yl}-2-(5-chloro-6-methoxy-indol-1-yl)-ethanone] had an IC50 of 6 nM.
To `N#Cc1cn(CC(=O)N2CCN(c3scnc3-c3nc4ccccc4[nH]3)CC2)c2ccccc12` [Example 59, 1-(2-{4-[4-(1H-Benzoimidazol-2-yl)-thiazol-5-yl]-piperazin-1-yl}-2-oxo-ethyl)-1H-indole-3-carbonitrile] belongs 4 nM.
`COc1ccc2[nH]c(-c3ncsc3N3CCN(C(=O)Cn4c(=O)n(C)c5ccccc54)CC3)nc2c1` [Example 33, 1-(2-{4-[4-(5-Methoxy-1H-benzoimidazol-2-yl)-thiazol-5-yl]-piperazin-1-yl}-2-oxo-ethyl)-3-methyl-1,3-dihydro-benzoimidazol-2-one] came in with an IC50 of 5 nM.
To `O=C(Cc1cn2nc(Cl)ccc2n1)N1CCN(c2scnc2-c2nc3ccccc3[nH]2)CC1` [Example 8, 1-{4-[4-(1H-Benzoimidazol-2-yl)-thiazol-5-yl]-piperazin-1-yl}-2-(6-chloro-imidazo[1,2-b]pyridazin-2-yl)-ethanone] belongs 392 nM; to `C[C@@H]1CN(c2scnc2-c2nc3ccccc3[nH]2)CCN1C(=O)Cc1ccc2cccnc2c1` [Example 120, 1-{(R)-4-[4-(1H-Benzoimidazol-2-yl)-thiazol-5-yl]-2-methyl-piperazin-1-yl}-2-quinolin-7-yl-ethanone], 16 nM; to `O=C(Cn1ccc(C(F)(F)F)n1)N1CCN(c2scnc2-c2nc3ccccc3[nH]2)CC1` [Example 5, 1-{4-[4-(1H-Benzoimidazol-2-yl)-thiazol-5-yl]-piperazin-1-yl}-2-(3-trifluoromethyl-pyrazol-1-yl)-ethanone], 33 nM.
Turning to `C[C@@H]1CN(c2scnc2-c2nc3ccccc3[nH]2)CCN1C(=O)Cc1ccc2nccnc2c1` [Example 121, 1-{(R)-4-[4-(1H-Benzoimidazol-2-yl)-thiazol-5-yl]-2-methyl-piperazin-1-yl}-2-quinoxalin-6-yl-ethanone], the 50% inhibitory concentration (IC50) was found to be 42 nM.
`O=C1CCN(CC(=O)N2CCN(c3scnc3-c3nc4ccccc4[nH]3)CC2)c2ccccc21` [Example 107, 1-(2-{4-[4-(1H-Benzoimidazol-2-yl)-thiazol-5-yl]-piperazin-1-yl}-2-oxo-ethyl)-2,3-dihydro-1H-quinolin-4-one] returned an IC50 of 78 nM. This IC50 lies about 1.9-fold higher than the previous one.
To `Cc1nc(C)n(CC(=O)N2CCN(c3sc(C(F)(F)F)nc3-c3nc4ccc(N5CCCC5=O)cc4[nH]3)C[C@H]2C)n1` [Example 235, 1-[2-(5-{(R)-4-[2-(3,5-Dimethyl-[1,2,4]triazol-1-yl)-acetyl]-3-methyl-piperazin-1-yl}-2-trifluoromethyl-thiazol-4-yl)-3H-benzoimidazol-5-yl]-pyrrolidin-2-one] belongs 30 nM; to `Cc1nc(CC(=O)N2CCN(c3scnc3-c3nc4ccccc4[nH]3)CC2)cs1` [Example 7, 1-{4-[4-(1H-Benzoimidazol-2-yl)-thiazol-5-yl]-piperazin-1-yl}-2-(2-methyl-thiazol-4-yl)-ethanone], 516 nM; to `C[C@@H]1CN(c2scnc2-c2nc3cc(C(C)(C)C)ccc3[nH]2)CCN1C(=O)Cn1cnc2cccnc21` [Example 86, 1-{(R)-4-[4-(5-tert-Butyl-1H-benzoimidazol-2-yl)-thiazol-5-yl]-2-methyl-piperazin-1-yl}-2-imidazo[4,5-b]pyridin-3-yl-ethanone], 1 nM.
To `O=C(Cn1cnc2cccnc21)N1CCCN(c2scnc2-c2nc3ccccc3[nH]2)CC1` [Example 45, 1-{4-[4-(1H-Benzoimidazol-2-yl)-thiazol-5-yl]-[1,4]diazepan-1-yl}-2-imidazo[4,5-b]pyridin-3-yl-ethanone] belongs 48 nM; to `C[C@@H]1CN(c2scnc2-c2nc3ccccc3[nH]2)CCN1C(=O)Cc1csc2ccc(Cl)cc12` [Example 134, 1-{(R)-4-[4-(1H-Benzoimidazol-2-yl)-thiazol-5-yl]-2-methyl-piperazin-1-yl}-2-(5-chloro-benzo[b]thiophen-3-yl)-ethanone], 115 nM; to `C[C@@H]1CN(c2scnc2-c2nc3c(C(F)(F)F)cccc3[nH]2)CCN1C(=O)Cn1cnc2cccnc21` [Example 95, 2-Imidazo[4,5-b]pyridin-3-yl-1-{(R)-2-methyl-4-[4-(4-trifluoromethyl-1H-benzoimidazol-2-yl)-thiazol-5-yl]-piperazin-1-yl}-ethanone], 4 nM.
With `O=C(Cn1ccc2cc(Cl)c(Cl)cc21)N1CCN(c2scnc2-c2nc3ccccc3[nH]2)CC1` [Example 53, 1-{4-[4-(1H-Benzoimidazol-2-yl)-thiazol-5-yl]-piperazin-1-yl}-2-(5,6-dichloro-indol-1-yl)-ethanone], the IC50 is 15 nM.
`O=C(CN1CCCc2ccccc21)N1CCN(c2scnc2-c2nc3ccccc3[nH]2)CC1` [Example 105, 1-{4-[4-(1H-Benzoimidazol-2-yl)-thiazol-5-yl]-piperazin-1-yl}-2-(3,4-dihydro-2H-quinolin-1-yl)-ethanone] came in with an IC50 of 89 nM.
`Cc1cc(C)n(CC(=O)N2CCN(c3scnc3-c3nc4ccccc4[nH]3)CC2)n1` [Example 13, 1-{4-[4-(1H-Benzoimidazol-2-yl)-thiazol-5-yl]-piperazin-1-yl}-2-(3,5-dimethyl-pyrazol-1-yl)-ethanone] displayed an IC50 of 92 nM.
Next, `C[C@@H]1CN(c2scnc2-c2nc3ccccc3[nH]2)CCN1C(=O)Cc1ccc2c(c1)CCO2` [Example 136, 1-{(R)-4-[4-(1H-Benzoimidazol-2-yl)-thiazol-5-yl]-2-methyl-piperazin-1-yl}-2-(2,3-dihydro-benzofuran-5-yl)-ethanone]: 26 nM; `COc1ccc2c(CC(=O)N3CCN(c4scnc4-c4nc5ccccc5[nH]4)C[C@H]3C)coc2c1` [Example 135, 1-{(R)-4-[4-(1H-Benzoimidazol-2-yl)-thiazol-5-yl]-2-methyl-piperazin-1-yl}-2-(6-methoxy-benzofuran-3-yl)-ethanone]: 88 nM.
Next, `Cn1c(=O)n(CC(=O)N2CCN(c3scnc3-c3nc4cc(OCCO)ccc4[nH]3)CC2)c2ccccc21` [Example 101, 1-[2-(4-{4-[5-(2-Hydroxy-ethoxy)-1H-benzoimidazol-2-yl]thiazol-5-yl}-piperazin-1-yl)-2-oxo-ethyl]-3-methyl-1,3-dihydro-benzoimidazol-2-one]: 14 nM; `C[C@@H]1CN(c2scnc2-c2nc3cc(Cl)c(C(F)(F)F)cc3[nH]2)CCN1C(=O)Cn1cnc2cccnc21` [Example 93, 1-{(R)-4-[4-(5-Chloro-6-trifluoromethyl-1H-benzoimidazol-2-yl)-thiazol-5-yl]-2-methyl-piperazin-1-yl}-2-imidazo[4,5-b]pyridin-3-yl-ethanone]: 1 nM; `COc1cccc2c1ccn2CC(=O)N1CCN(c2scnc2-c2nc3ccccc3[nH]2)CC1` [Example 52, 1-{4-[4-(1H-Benzoimidazol-2-yl)-thiazol-5-yl]-piperazin-1-yl}-2-(4-methoxy-indol-1-yl)-ethanone]: 136 nM.
`C[C@@H]1CN(c2scnc2-c2nc3cc(Cl)c(F)cc3[nH]2)CCN1C(=O)Cn1ccc2cccnc21` [Example 26, 1-{(R)-4-[4-(5-Chloro-6-fluoro-1H-benzoimidazol-2-yl)-thiazol-5-yl]-2-methyl-piperazin-1-yl}-2-pyrrolo[2,3-b]pyridin-1-yl-ethanone] yielded an IC50 of 1 nM.

The IC50 is the concentration that inhibits the measured activity by half.
